“Also recorded” adds a separate entry of the source.
What was measured:
Type in all cases: in vivo, human
[1] = tested on: subjects with clinically stable HCM; assay: Study Compound 1-001 (MYK-461-001): SAD trial in HCM patients; details: for LVOT Gradient Post-dose: upon provocation
Description: (§1) Three clinical studies have investigated the safety and tolerability of Compound 1 to date; conduct of 2 studies has completed and 1 study is ongoing. A double-blind, placebo-controlled, single ascending-dose study (SAD) (Compound 1-002) was conducted in healthy men. Subjects received single doses ranging from 1 mg to 48 mg. Conduct of an open-label sequential-group SAD study in subjects with clinically stable HCM (Compound 1-001) is also complete; single doses of up to 144 mg were administered. In addition, a double-blind, placebo-controlled, multiple ascending-dose (MAD) study (Compound 1-003) is being conducted in which healthy adult subjects have received multiple doses of Compound 1 up to 25 mg once daily (QD) for up to 28 days.
In Study MYK-461-001, single doses of up to 144 mg were administered to 15 subjects with HCM. […] In terms of causality assessment, there are no nonclinical or other clinical data to implicate Compound 1 in cardiac ion channel current modulation, or cardiac impulse generation or conduction. […] Other potential contributions to the event include chronic […] with metoprolol succinate 150 mg QD, and the observation that the subject inadvertently performed the Valsalva maneuver during the handgrip strength assessment immediately prior to the event.
LVOT obstruction was resolved in patients following a single dose of Compound 1, as shown in the results in Table 2. […] Each patient was administered single 96 mg dose of Compound 1. Both patients' gradients were resolved following dosing.

[2] = tested on: healthy volunteers and HCM patients; assay: Phase 1 program summary (three Phase 1 studies)
Description: as §1

[3] = tested on: subjects with symptomatic HCM and LVOT obstruction; assay: Phase 2 open-label pilot study Pioneer-HCM-A (Cohort A); details: for Lateral e′ Week 12: baseline 6.9 ± 1.9; for E/e′ Week 12: baseline 12.9 ± 3.3
Source text: This is a phase 2 open-label pilot study to evaluate the efficacy, PK, PD, safety, and tolerability of Compound 1 in subjects with symptomatic HCM and LVOT obstruction. Approximately 10 adult subjects with symptomatic HCM, a resting LVOT gradient ≥30 mm Hg, and post-exercise peak LVOT gradient ≥50 mm Hg will be enrolled. The study will have a 12-week treatment phase and a 4-week washout phase (FIG. 3).
At Screening, subjects will undergo transthoracic echocardiography (TTE) in the supine or left lateral decubitus position. In addition to a standardized complete TTE, both resting instantaneous peak LVOT gradient (baseline) and provoked peak LVOT gradient will be collected. Subjects will then undergo a standard symptom-limited exercise test (hemodynamic stress echocardiography). Subjects will be assessed systematically for symptoms of dyspnea and/or angina. Instantaneous peak LVOT gradient will be assessed immediately post-exercise by TTE.
On Day 1, resting TTE will be performed, blood samples will be drawn for PK, and subjects will have an assessment of pVO2, VE/VCO2, and other variables via cardiopulmonary exercise testing (CPET). After CPET, subjects will be dosed with open-label oral Compound 1 at the investigational site and will be observed for at least 1 hour after dosing, with assessment of vital signs and ECGs at 1 hour postdose. Subjects will then be supplied with Compound 1 sufficient for QD dosing at home.
Subjects will be evaluated at the investigational site at Weeks 1, 2, 3, 4, 5, 6, 7, 8, 12, and 16. At each of these visits, resting TTE will be performed and blood samples will be drawn for PK. On study visit days, study medication will be administered at the investigational site in order to collect blood samples for PK about 2 hours prior to dosing. At Weeks 4, 12, and 16, hemodynamic stress echocardiography will be performed and peak LVOT gradient will be assessed. CPET will be conducted between Weeks 10 and 12 (inclusive).
The Compound 1 starting dose will be 10 mg for subjects who weigh […] 60 kg and 15 mg for subjects who weigh >60 kg. At the end of Week 4 (Day 28), each subject's LVEF will be evaluated, and the subject's dose may be increased, decreased, or remain unchanged based on the predetermined criteria in Table 6, in consultation between the investigator and the medical monitor. If Compound 1 plasma concentration exceeds 750 ng/mL at Week 2, no dose increase is allowed, regardless of LVEF data at Week 4; however, dose decrease per LVEF data is allowed in this circumstance. The subject will subsequently receive that dose from Week 5 through Week 12.
The following results were obtained generally following the procedures described in Example 3. Each subject in the following trials discontinued β-blocker, calcium-channel blocker, and/or disopyramide therapy at least 14 days prior to the screening visit.

[4] = Cohort A (10-15 mg/day), N = 10, mean ± SD
[5] = Cohort A, baseline to Week 12, n 10

With CC(C)n1c(=O)cc(N[C@@H](C)c2ccccc2)[nH]c1=O [Compound 1, (S)-3-Isopropyl-6-((1-phenylethyl)amino) pyrimidine-2, 4(1H,3H)-dione] the Responders % ([1]; 48 mg single dose cohort) was 50%, the Responders n ([1]; 48 mg single dose cohort) was 2/4 and the Responders % ([1]; 96 mg single dose cohort) was 83%. The Responders n ([1]; 96 mg single dose cohort) was 5/6, the Responders % ([1]; 144 mg single dose cohort) was 80% and the Responders n ([1]; 144 mg single dose cohort) was 4/5. The “LVOT gradients following Valsalva after dosing” value ([1]; 2 subjects, single 96 mg dose) was < 10 mm Hg, the “LVOT Gradient % Decrease” value ([1]; Patient 1, single 96 mg dose) was “(79%)” and the “LVOT Gradient Post-dose” value ([1]; Patient 1, single 96 mg dose, pre-dose 42) was 9 mmHg. For the same compound, the “LVOT Gradient % Decrease” value ([1]; Patient 2, single 96 mg dose) was “(82%)”, the “LVOT Gradient Post-dose” value ([1]; Patient 2, single 96 mg dose, pre-dose 28) was 5 mmHg and the “proof of mechanism: LV contractility” value ([1]; all subjects with HCM, single doses 48-144 mg) was “reduced LV contractility by at least 1 of 3 independent echocardiographic measures”. The “number of adverse events (AEs)” value ([1]; human, in vivo) was 35, the “severity of adverse events” value ([1]; human, in vivo) was “all mild to moderate” and the tolerability ([1]; single doses of up to 144 mg, 15 subjects with HCM) was “well tolerated without deaths, withdrawals due to AEs, or dose-related treatment-emergent AEs, except for 1 of 5 subjects who received the 144 mg dose”. For the same compound, the “LVOT obstruction after a single dose” value ([1]; two subjects with LVOT pressure gradient, single 96 mg dose) was “resolved”, the “proof of mechanism: cardiac contractility” value [2] was “dependent reduction in cardiac contractility” and the “LV filling pressure and diastolic wall stress” value ([3]; 15 mg/day, oHCM patients) was “improvement in LV filling pressure (reduced E/e′) and diastolic wall stress (reduced NTpro-BNP)”. The LVOT gradient ([3]; 15 mg/day, oHCM patients) was “eliminates LVOT gradient”, the “resting LV systolic function” value ([3]; 15 mg/day, oHCM patients) was “decreases resting LV systolic function” and the “resting LVOT gradient” value ([3]; 10, 15 or 20 mg, weeks 0 to 12) was “abolished as early as week 1 in most subjects and by week 2 in all subjects”. The “change in LVEF (stress ejection fraction)” value ([3]; 10 or 15 mg, weeks 0, 4 and 12) was “minimal change”, the “stress LVOT gradient” value ([3]; 10 or 15 mg, weeks 0, 4 and 12) was “abolished” and the “Resting LVEF Week 12” value ([3]; Cohort A (10-15 mg/day), LVEF N = 4, mean ± SD, baseline 70 ± 6) was 54 ± 12%. For the same compound, the “Post-exercise LVEF Week 12” value ([3]; Cohort A (10-15 mg/day), LVEF N = 4, mean ± SD, baseline 76 ± 5) was 60 ± 22%, the “Septal e′ Week 12” value ([3]; Cohort A (10-15 mg/day), N = 10, mean ± SD, baseline 5 4 ± 1 6) was 6.4 ± 1.5 cm/s and the “Mean e′ Week 12” value ([3]; Cohort A (10-15 mg/day), N = 10, mean ± SD, baseline 5.7 ± 1.2) was 7.4 ± 1.6 cm/s. For the same compound, the “Lateral e′ Week 12” value [3, 4] was 8.8 ± 1.6 cm/s, the “E/e′ Week 12” value [3, 4] was 9.1 ± 2.1 and the “Resting Gradient Week 12” value ([3]; Cohort A (10-15 mg/day), N = 10, mean ± SD, baseline 68 ± 34) was 14 ± 25 mm Hg. For the same compound, the “Post-exercise Gradient Week 12” value ([3]; Cohort A (10-15 mg/day), N = 10, mean ± SD, baseline 125 ± 60) was 19 ± 13 mm Hg, the “NT-pro BNP Week 12” value ([3]; Cohort A (10-15 mg/day), N = 10, mean ± SD, baseline 939 ± 647) was 235 ± 417 pg/mL and the “E/e′ Delta” value ([3]; Cohort A, baseline to Week 12, n 8) was −3.6 ± 3.7. For the same compound, the “Lateral e′ Delta” value ([3]; Cohort A, baseline to Week 12, n 9) was 1.6 ± 1.9 cm/s, the “Dyspnea score Delta” value [3, 5] was −3.1 ± 1.4 and the “LA Vol (index) Delta” value [3, 5] was 1 ± 7 mL/m^2. For the same compound, the “NT-proBNP Delta” value [3, 5] was −459 ± 722, the “LVEDV Delta” value ([3]; Cohort A, baseline to Week 12, n 11) was 16 ± 21 and the “Dyspnea score Week 12” value ([3]; Cohort A, baseline 4.9 ± 1.6, n 10) was 1.7 ± 1.8. For the same compound, the “Lateral e′ Week 12” value ([3]; Cohort A, n 9) was 8.7 ± 1.6 cm/s, the “E/e′ Week 12” value ([3]; Cohort A, n 8) was 9.1 ± 2.2 and the “LA Vol (index) Week 12” value ([3]; Cohort A, baseline 30 ± 10, n 10) was 31 ± 8 mL/m^2. For the same compound, the “LVEDV Week 12” value ([3]; Cohort A, baseline 82 ± 24, n 11) was 97 ± 24, the “NT-proBNP Week 12” value ([3]; Cohort A, baseline 930 ± 647, n 10) was 454 ± 551 and the dyspnea symptom score ([3]; Day 1 to Week 16, dosing through week 12) was “improves with Compound 1 administration, returning after cessation of therapy; also recorded: improve”. For the same compound, the “resting LVEF versus Compound 1 concentration” value ([3]; FIG. 8) was “exposure-dependent decrease”, the “increase in exercise capacity (pVO2) versus change in LVEF” value ([3]; FIG. 14) was “greatest in patients with the least decrease in LVEF” and the “oHCM phenotype after cessation (resting LVOT gradient, resting LVEF)” value ([3]; administration stopped after week 12) was “returns after cessation of Compound 1”. For the same compound, the “most robust improvements in pVO2” value ([3]; associated with minimal change in resting LVEF) was > 3 mL/min/kg, the “peak VO2 during CPET” value ([3]; baseline versus week 12) was “improves CPET metric; also recorded: improve” and the “peak circulatory power during CPET” value ([3]; baseline versus week 12) was “improves CPET metric; also recorded: improve”. The tolerability ([3]; doses up to 20 mg QD) was “well tolerated”, the “Compound 1 concentration associated with reduction of resting gradient below hemodynamic significance” value ([3]; plasma) was > 225 ng/mL and the NT-proBNP levels ([3]; weeks 0, 4, 8 and 12) was “reduced after 4 weeks of Compound 1 but can rebound with higher exposures”. The “NYHA Class” value ([3]; with Compound 1 therapy) was “improve”.

— patent US20240423981A1, “TREATMENT OF HCM WITH PYRIMIDINEDIONE COMPOUNDS” (MyoKardia, Inc., priority 2017, published 2024)
